Key:
[1] = test system: isolated mitochondria from rat heart; assay: Mitochondrial respiration / oxidative phosphorylation (oxygraph); type: biochemical; conditions: AOL 5 to 80 μM
Protocol: Male Wistar rats (250-325 g; obtained from Janvier Labs, Le Genest-Saint-Isle, France) were killed by stunning and cervical dislocation, and the heart was quickly removed and washed in cold isolation medium containing 100 mM sucrose, 180 mM KCl, 50 mM Tris, 5 mM MgCl2, 10 mM EDTA, and 0.1% (w/v) deffated BSA (pH 7.2).
Isolation of heart mitochondria was performed in a cold chamber. Before homogenization, hearts (about 1.5 g) were minced with scissors and treated for 5 min in 5 mL of the same medium supplemented with protease (2 mg of bacterial proteinase type XXIV per mL of isolation buffer) with stirring. The tissue suspension was poured into a 50-ml glass Potter homogenizer, diluted with 20 mL of isolation buffer, then homogenized for 3 min using a motorized Teflon pestle. The homogenate was filtered through bolting cloth (Sefar Nitex) to remove debris, and centrifuged at 8,000 g for 10 minutes. The resulting pellet was rinsed with 5 mL of isolation buffer, resuspended in 25 mL of the same buffer, then subjected to low speed centrifugation (400 g) for 8 min. The resulting supernatant was centrifuged twice at 7,000 g for 15 min to yield a washed mitochondrial pellet that was gently resuspended in 150 μL of isolation buffer. Protein concentration was determined by the Bradford method (Sigma, kit # B6916) using BSA as standard. Mitochondria were kept on ice at a final concentration of 40-50 mg/mL for less than 5 h.
Oxygen consumption rates of heart mitochondria (0.1 mg/mL), incubated in the absence or presence of AOL at increasing doses (from 0 to 80 μM final concentration), were recorded polarographically under constant stirring at 25° C. using a high resolution oximeter (Oxygraph-2K, Oroboros Instruments, Austria). The respiration medium consisted in 140 mM sucrose, 100 mM KCl, 1 mM EGTA, 20 mM MgCl2, 10 mM KH2PO4, and 1 g/L (w/v) BSA essentially fatty acid free (pH 7.2).
This has been carried out by using the now classical oxygraph method. Mitochondria were first incubated with various AOL concentrations (5 to 80 μM) then respiratory substrate was added (substrate state, black curve), followed by a saturating ADP concentration to get the maximal oxidative phosphorylation rate (grey curve), and finally the addition of atractyloside (ATR) which inhibits the ADP/ATP translocator and gives the mitochondrial leak rate under non-phosphorylating conditions (FIG. 1A). The other panels of FIG. 1B-D presents the results obtained with different respiratory substrate combinations: glutamate+malate which feed electrons to complex I, succinate (+rotenone) for complex II and glutamate+malate+succinate to feed electrons to both complexes. […]

[2] = test system: normoxic, chronic hypoxic and monocrotaline-treated rats; assay: Pulmonary hypertension rat models (chronic hypoxia, monocrotaline); type: in vivo
Protocol: Male Wistar rats (300-400 g) were separated into 3 groups and used 4 weeks later: • the first group (control or normoxic rats—N rats) was housed in ambient room air; • the second group (chronic hypoxic rats—CH rats) was exposed to chronic hypoxia for 3 weeks in a hypobaric chamber (50 kPa), and • the third group (MCT rats) was injected with a single intraperitoneal dose of monocrotaline at a dose of 60 mg/kg. MCT (Sigma, St Quentin Fallavier, France) was dissolved in an equal volume of HCl ([…]) and NaOH ([…]).
In each group, some animals were treated with AOL (Sulfarlem, EG Labo Eurogenerics. Crushed tablets mixed with food, fed ad libitum) and some other animals were untreated. Eaten food was weighed every day to estimate the AOL dose administered. 10 mg/kg/day was thus administered during the 3 weeks of experiment for the second and third groups.
Pulmonary hypertension was assessed by measuring both the mean pulmonary arterial pressure (mPAP) and right ventricle hypertrophy. To measure PAP, N, CH and MCT rats were anesthetized with pentobarbital sodium (Centravet) by intraperitoneal injection (60 mg/kg) and mPAP was measured, in closed-chest rats, through a catheter inserted in the right jugular vein, then through the right atria and the right ventricle into the pulmonary artery, and attached to a Baxter Uniflow gauge pressure transducer.
Right ventricle hypertrophy was estimated by the ratio of right ventricle (RV) to left ventricle plus septum (LV+S) weight (Fulton index).
Pulmonary arteries (PA) remodeling was assessed by measuring the percentage of the PA medial thickness from sections of paraffin-embedded lung. Lung sections were first stained with hematoxylin and eosin (VWR) according to common histological procedure.

[3] = test system: outer nuclear layer (ONL) of the retina; assay: Progressive light-induced retinal degeneration, retina histology; type: in vivo, rat; conditions: 6 mg/kg/day, three times a day, 7 days
Protocol: Rats bred under cyclic low-intensity lighting were transferred to cyclic high-intensity lighting for one week and divided into 3 groups (non-treated animals, vehicle-treated animals and AOL-treated animals). Treated animals received injections of vehicle or AOL at a dose of 6 mg/kg/day, three times a day for the 7 days of the transfer (30 minutes before light-ON; at 01.00 pm; at 09.00 pm). After one week, animals were transferred in the dark (D0).
A control group (“untransferred”) was not transferred to cyclic high-intensity lighting but received the same treatment as described above: injections of vehicle or AOL three times a day for 7 days, followed by a transfer in the dark (D0).
Animals were then sacrificed for histological analysis.

For `COc1ccc(-c2cc(=S)ss2)cc1` [AOL, 5-(4-methoxyphenyl)-3H-1,2-dithiole-3-thione], the “mitochondrial oxidative phosphorylation and inner membrane integrity (leak rate, after ATR addition)” value [1] was “absence of effect”, the “mitochondrial respiration under the different energetic states” value ([1]; glutamate and malate) was “no statistical differences” and the “mitochondrial respiration under the different energetic states” value ([1]; glutamate, malate and succinate) was “no statistical differences”. The “mitochondrial respiration under the different energetic states” value ([1]; succinate (+rotenone)) was “no statistical differences”, the “reduction of pulmonary arteries remodeling (printed: pulmonary arteries diameter)” value ([2]; CH rats, oral 10 mg/kg/day) was ~30% and the “mean pulmonary arterial pressure (mPAP)” value ([2]; CH rats, oral 10 mg/kg/day, 3 weeks) was “even more significantly”. The “mean pulmonary arterial pressure (mPAP)” value ([2]; MCT rats, oral 10 mg/kg/day, 3 weeks) was “decreased”, the “mean pulmonary arterial pressure (mPAP)” value ([2]; normoxic (N) rats) was “no significant effect” and the “Fulton index (right ventricular hypertrophy)” value ([2]; oral 10 mg/kg/day) was “no effect”. For the same compound, the ONL thickness ([3]; transferred to cyclic high-intensity lighting) was “significant increase” and the ONL thickness ([3]; untransferred control group) was “no effect”.
